Assays:
[1] = tested on: T-cell lymphoma cells line (Jurkat cells); assay: Jurkat T-cell lymphoma cell survival (presto blue), 48 hours post treatment; type: cell-based
Procedure: FIG. 2. The compounds were tested against T-cell lymphoma cells line (Jurkat cells) obtained from ATCC and were tested against APAP and its derivatives at various concentrations with 0.2% DMSO as a vehicle. Free flowing cells were seeded at 3500 cells and allowed 48 hours to stabilize before treatment. Drugs were administered to both seeded wells and wells that that were designated blank, without cells. This additional step was added in order to account for the effects of the drugs on the reagent used for analysis. Data for cell survival, using presto blue, was analyzed at 48 hours post treatment.
The effects of the drugs on lymphoma cells were tested on Jurkat cells, as described above and in FIG. 2.

[2] = tested on: differentiated neuronal cell line HCN-2; assay: Toxicity on differentiated neuronal cell line HCN-2; type: cell-based, human; details: HCN-2 differentiated 12 days; for reduction (non-significant): highest soluble concentration, not a significant reduction
Procedure: FIG. 3. The compounds were tested on a differentiated neuronal cell line (9) HCN-2, obtained from ATCC. Cells were seeded at 5,000 cells per well using a low passage, second passage of cells to ensure cell stability. Cells were then subjected to induced differentiation, at 72 hours, with a differentiating concoction composed of 25 ng/mL NGF-beta-human, 0.05 mM dibutyryl cAMP and 0.5 mM IBMX in 10% DMEM, all differentiating factors were obtained from Sigma Aldrich (9). Cells were treated with differentiating factor for 12 days to ensure that cells differentiated into neuronal cells. On the twelfth day, cells were treated with and without drugs at the highest soluble concentration to determine the activity of the compounds on neuronal cells.
The compounds were also tested on a differentiated neuronal cell line, HCN-2, obtained from ATCC (FIG. 3).

[3] = tested on: U87MG cells, stage IV astrocytoma; assay: U87MG cell survival (presto blue), 48 hours post treatment; type: cell-based
Procedure: (§1) FIG. 1. U87MG cells, stage IV astrocytoma obtained from ATCC, were tested against APAP and its derivatives at various concentrations with 0.2% DMSO as a vehicle. Cells were seeded at 3500 cells and allowed 48 hours to stabilize before treatment. Drugs were administered and data for cell survival, using presto blue, were analyzed at 48 hours post treatment.
as §1, with “U87MG” for “FIG. 1. U87MG”, “concentration” for “concentrations”, “vehicle (FIG. 1).” for “vehicle.”

[4] = tested on: malignant astrocytes; details: cell culture method, Casper et al. (6); cited from earlier work

Compound: CCCCCC(=O)Nc1ccc(O)cc1 [PL6, N-(4-hydroxyphenyl)hexanamide]
- melting point: 110 °C

Compound: CCCCCCCCCCCCCCCC(=O)Nc1ccc(O)cc1 [PL16, N-(4-Hydroxyphenyl)hexadecanamide]
- melting point: 131 °C

Compound: CCCCCCCCCC(=O)Nc1ccc(O)cc1 [PL10, N-(4-hydroxyphenyl)decanamide]
- activity when compared to APAP ([1]; 0.125 mM): greatest activity
- reduction (non-significant) [2]: 35.6%
- melting point: 124 °C

Compound: O=C(Nc1ccc(O)cc1)c1ccc2ccccc2c1 [PL11]
- reduction in cell growth ([3]; 0.25 mM): 87.5%
- reduction (non-significant) [2]: 35.6%

Compound: CCCCCCCC(=O)Nc1ccc(O)cc1 [PL8, N-(4-hydroxyphenyl)octanamide]
- activity (cell survival) in words ([3]; 0.25 mM): greatest activity
- toxicity on neuronal cells ([2]; highest concentration 0.5 mM): toxicity
- melting point: 120 °C

Compound: CCCCCCC(=O)Nc1ccc(O)cc1 [PL7, N-(4-hydroxyphenyl)heptanamide]
- activity (cell survival) in words ([3]; 0.5 mM): greatest activity
- toxicity on neuronal cells ([2]; highest concentration 0.5 mM): toxicity
- melting point: 109 °C

Compound: CCCCCCCCC(=O)Nc1ccc(O)cc1 [PL9, N-(4-hydroxyphenyl)nonanamide]
- toxicity on neuronal cells ([2]; highest concentration 0.25 mM): toxicity
- melting point: 119 °C

Compound: CC(=O)Nc1ccc(O)cc1 [APAP, N-(4-Hydroxyphenyl)acetamide, reference compound]
- reduction in cell growth as compared to control 0.2% DMSO ([1]; 2 mM): 16%
- reduction in cell growth as compared to control 0.2% DMSO ([3]; 2 mM): 36%
- ability to reduce the growth of malignant astrocytes [4]: only mild

Compound: CCCCCCCCCCCC(=O)Nc1ccc(O)cc1 [PL12, N-(4-hydroxyphenyl)dodecanamide]
- melting point: 128 °C

Compound: CC(C)C(=O)Nc1ccc(O)cc1 [PL4, N-(4-hydroxyphenyl)-2-methylpropanamide]
- melting point: 160 to 162 °C

Compound: O=C(Nc1ccc(O)cc1)c1ccccc1 [PL5B, N-(4-hydroxyphenyl)benzamide]
- melting point: 217 to 218 °C
